Data published in patent publication US9663513B2, “Pyrimidine PDE10 inhibitors” (Merck Sharp & Dohme Corp., priority 2012, dated 2017).

biological target: human PDE10A2 (Homo sapiens (Human), UniProt Q9Y233); assay: PDE10 fluorescence polarization (IMAP FP) inhibition assay; assay type: biochemical; conditions: human PDE10A2 from transfected AD293 cells; FAM-labeled cAMP 50 nM; apparent inhibition constant; read-out: PDE10A Ki
Method in brief: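 Cytoplasmic lysate of AD293 cells transiently expressing human PDE10A2 (enzyme level giving 20% conversion) incubated with 50 nM FAM-cAMP in pH 7.2 Tris/MgCl2 buffer, 30 min at room temperature. IMAP binding solution added, FP read after ≥1 h; 10-point 3-fold compound titrations fitted to a four-parameter equation.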

Sequence of human PDE10A2 (Q9Y233 267-1055): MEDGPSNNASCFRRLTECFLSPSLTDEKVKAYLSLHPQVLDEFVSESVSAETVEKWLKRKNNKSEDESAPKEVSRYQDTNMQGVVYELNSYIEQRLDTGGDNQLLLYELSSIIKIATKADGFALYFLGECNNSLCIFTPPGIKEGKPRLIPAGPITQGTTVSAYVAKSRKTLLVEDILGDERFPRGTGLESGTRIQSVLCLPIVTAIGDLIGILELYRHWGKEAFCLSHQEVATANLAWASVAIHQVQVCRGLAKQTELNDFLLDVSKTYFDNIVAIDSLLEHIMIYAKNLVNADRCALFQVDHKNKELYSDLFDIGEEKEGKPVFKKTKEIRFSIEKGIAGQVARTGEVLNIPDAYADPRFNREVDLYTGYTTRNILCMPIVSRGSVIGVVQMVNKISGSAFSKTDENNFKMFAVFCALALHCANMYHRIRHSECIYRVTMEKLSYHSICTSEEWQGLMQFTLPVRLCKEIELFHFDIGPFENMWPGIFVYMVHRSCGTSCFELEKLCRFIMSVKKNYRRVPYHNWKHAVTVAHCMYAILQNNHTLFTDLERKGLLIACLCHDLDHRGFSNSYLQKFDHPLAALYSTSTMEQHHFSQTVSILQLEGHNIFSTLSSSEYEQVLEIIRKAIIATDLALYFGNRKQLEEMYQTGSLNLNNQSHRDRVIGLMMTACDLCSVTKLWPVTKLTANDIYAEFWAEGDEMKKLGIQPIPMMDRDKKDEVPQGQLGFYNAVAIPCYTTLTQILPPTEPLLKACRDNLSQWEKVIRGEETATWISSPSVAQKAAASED

Row | Compound | Ki
1 | Cc1ncc(C2CCC3(CC2)OCCO3)c(OC[C@H]2C[C@H]2c2ccccn2)n1 [Example 198, 2-methyl-4-(((1S,2R)-2-(pyridin-2-yl)cyclopropyl)methoxy)-5-(1,4-dioxaspiro[4.5]decan-8-yl)pyrimidine] | 27.6 nM
2 | Cc1ncc([C@H]2CC[C@H](O)CC2)c(OC[C@H]2C[C@@H]2c2ccccn2)n1 [Example 199, Trans-4-(2-methyl-4-(((1S,2S)-2-(pyridin-2-yl)cyclopropyl)methoxy)pyrimidin-5-yl)cyclohexanol] | 4.79 nM
3 | Cc1ccnc([C@H]2C[C@@H]2COc2nc(C)ncc2C2CCC3(CC2)OCCO3)c1 [Example 201, 2-methyl-4-(((1S,2S)-2-(4-methylpyridin-2-yl)cyclopropyl)methoxy)-5-(1,4-dioxaspiro[4.5]decan-8-yl)pyrimidine] | 17.1 nM
4 | Cc1ccnc([C@H]2C[C@@H]2COc2nc(C)ncc2C2CCC(=O)CC2)c1 [Example 203, 4-(2-methyl-4-(((1S,2S)-2-(4-methylpyridin-2-yl)cyclopropyl)methoxy)pyrimidin-5-yl)cyclohexanone] | 30.8 nM
5 | Cc1ncc([C@@H]2CCC3(C[C@H]2O)OCCO3)c(OC[C@H]2C[C@@H]2c2ccc3ccccc3n2)n1 [Example 205, (7R,8S)-8-(2-methyl-4-(((1S,2S)-2-(quinolin-2-yl)cyclopropyl)methoxy)pyrimidin-5-yl)-1,4-dioxaspiro[4.5]decan-7-ol] | 7.08 nM
6 | Cc1ncc(C2(O)CCC3(CC2)OCCO3)c(OC[C@H]2C[C@@H]2c2ccc3ccccc3n2)n1 [Example 206, 8-(2-methyl-4-(((1S,2S)-2-(quinolin-2-yl)cyclopropyl)methoxy)pyrimidin-5-yl)-1,4-dioxaspiro[4.5]decan-8-ol] | 6.28 nM

Compounds with a lower Ki, results first:

Row | Ki | Compound
7 | 3.48 nM | CCc1ccc([C@@H]2C[C@@H]2COc2nc(C)ncc2C2CCC(=O)CC2)nc1 [Example 195, 4-(4-(((1S,2R)-2-(5-ethylpyridin-2-yl)cyclopropyl)methoxy)-2-methylpyrimidin-5-yl)cyclohexanone]
8 | 2.96 nM | COc1cccc([C@H]2C[C@@H]2COc2nc(C)ncc2C2CCC(=O)CC2)n1 [Example 202, 4-(4-(((1S,2S)-2-(6-methoxypyridin-2-yl)cyclopropyl)methoxy)-2-methylpyrimidin-5-yl)cyclohexanone]
9 | 2.28 nM | Cc1ccc([C@H]2C[C@@H]2COc2nc(C)ncc2C2CCCCC2)nc1 [Example 208, 5-Cyclohexyl-2-methyl-4-(((1S,2S)-2-(5-methylpyridin-2-yl)cyclopropyl)methoxy)pyrimidine]
10 | 1.73 nM | CCc1ccc([C@@H]2C[C@@H]2COc2nc(C)ncc2[C@H]2CC[C@@H](O)CC2)nc1 [Example 197, (1R,4s)-4-(4-(((1S,2R)-2-(5-ethylpyridin-2-yl)cyclopropyl)methoxy)-2-methylpyrimidin-5-yl)cyclohexanol]
11 | 1.61 nM | COc1cccc([C@H]2C[C@@H]2COc2nc(C)ncc2C2CCC3(CC2)OCCO3)n1 [Example 200, 4-(((1S,2S)-2-(6-methoxypyridin-2-yl)cyclopropyl)methoxy)-2-methyl-5-(1,4-dioxaspiro[4.5]decan-8-yl)pyrimidine]
12 | 0.73 nM | Cc1ncc(C2CCC3(CC2)OCCO3)c(OC[C@@H](C)Cc2ccc3ccccc3n2)n1 [Example 204, 2-((2S)-2-methyl-3-(2-methyl-5-(1,4-dioxaspiro[4.5]decan-8-yl)pyrimidin-4 yloxy)propyl)quinoline]
13 | 0.5 nM | CCc1ccc([C@@H]2C[C@@H]2COc2nc(C)ncc2[C@H]2CC[C@H](O)CC2)nc1 [Example 196, Trans-4-(4-(((1S,2R)-2-(5-ethylpyridin-2-yl)cyclopropyl)methoxy)-2-methylpyrimidin-5-yl)cyclohexanol]
14 | 0.48 nM | COc1ccc([C@H]2C[C@@H]2COc2nc(C)ncc2C2CCCC(=O)C2)nc1 (stereo partly drawn) [Example 207, 3-(4-(((1S,2S)-2-(5-Methoxypyridin-2-yl)cyclopropyl)methoxy)-2-methylpyrimidin-5-yl)cyclohexanone]
